Laboratory results published in article PMC6753678, “Fueling Open Innovation for Malaria Transmission-Blocking Drugs: Hundreds of Molecules Targeting Early Parasite Mosquito Stages” (Frontiers in Microbiology, 2019).
Read-outs that look alike come from different tables or passages of the source.

Assays:
[1] = test system: P. falciparum late stage (stages IV-V) gametocytes; design: method as in Almela et al 2016; conditions: ref Almela et al 2016, read-out: Pf GCT ATP IC50, cited from earlier work
[2] = test system: P. falciparum late stage (stages IV-V) gametocytes; experiment: P. falciparum late stage gametocyte ATP depletion assay (Pf GC-ATP); conditions: 1: YES; 0: NO
[3] = test system: HepG2 cells; experiment: HepG2 cytotoxicity assay; conditions: for IC50: read-out: HepG2 cytotoxicity assay IC50, dose response confirmation; for HepG2 cytoxicity: value reported with the Pb ODA screen
How it was run: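 Cells at 2,500 per well in MEM with 10% fetal bovine serum and 1% NEAA were exposed to test compounds for 48 h at 37°C, 5% CO2. Viability was read by fluorescence, with percent inhibition calculated against 50 μM doxorubicin (positive) and DMSO (negative) controls.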

[4] = test system: P. falciparum female gametocytes; experiment: P. falciparum female gametogenesis assay (Pf FGAA); conditions: 1: YES; 0: NO
[5] = test system: 3D7-strain P. falciparum asexual parasites; experiment: P. falciparum asexual growth inhibition assay (Pf GIA); format: cell-based, Plasmodium falciparum; conditions: dose response confirmation; read-out: Pf asexual growth inhibition assays IC50
How it was run: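 0.25% parasitemia, 2% Hct, RPMI/HEPES/hypoxanthine/5% Albumax; compound dose response, 72 h, 37°C, 5% CO2, 5% O2, 90% N2. Freeze-thaw, then LDH assay, A650. % inhibition vs chloroquine (50 μM)/DMSO, mean of 3 independent runs.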

[6] = test system: P. falciparum female gametocytes; design: method as in Miguel-Blanco et al 2017; conditions: ref Miguel-Blanco et al 2017, read-out: Pf FGAA IC50, cited from earlier work
[7] = test system: HepG2 cells; conditions: cited from earlier work
[8] = test system: P. berghei ookinete development; conditions: for Is compound selective in assay? Pb ODA active?: 1: YES, 0: NO; for % inhibition, Replicate A / % inhibition, Replicate B: primary screen at 1 μM
[9] = HepG2 cytotoxicity unified across the three screens
[10] = value reported with the Pf FGAA screen, ref Miguel-Blanco et al 2017
[11] = value reported with the Pf GCT ATP screen, ref Almela et al 2016
[12] = read-out: Pb ODA IC50, this manuscript
[13] = read-out: Pb Ookinete development assay IC50, dose response confirmation

CCc1c(CCNCCCCCCNCCc2ccc([N+](=O)[O-])cc2)ccc(OC)c1OC.Cl [TCMDC-132066]
IC50 ([1]; TCAMS screen comparison): 540 nM | Is compound selective in assay? Pf GC-ATP active? [2]: 1 (1: YES) | Unified cytotox [3, 9]: 5.46 µM | IC50 [3]: 5130 nM | HepG2 cytoxicity ([3]; this manuscript): 5.13 µM | Is compound selective in assay? Pf FGAA active? [4]: 0 (0: NO) | IC50 [5]: 675 nM | IC50 ([6]; TCAMS screen comparison): 1460 nM | HepG2 cytoxicity [7, 10]: 4.57 µM | HepG2 cytoxicity [7, 11]: 6.67 µM | Is compound selective in assay? Pb ODA active? [8]: 0 (0: NO) | % inhibition, Replicate A [8]: 25.72% | % inhibition, Replicate B [8]: 55.23% | IC50 [8, 12]: 6610 nM | IC50 [8, 13]: 6600 nM

Cl.c1ccc2c(NCCCCCCCCCNc3c4ccccc4nc4ccccc34)c3ccccc3nc2c1 [TCMDC-124286]
IC50 [1]: 1500 nM | Is compound selective in assay? Pf GC-ATP active? [2]: 0 (0: NO) | HepG2 cytoxicity (Pb ODA, this manuscript) ([3]; HepG2, this manuscript): 5.50 µM | Unified cytotox ([3]; HepG2 values of the three screens unified): 5.50 µM | IC50 [3]: 5500 nM | Is compound selective in assay? Pf FGAA active? [4]: 0 (0: NO) | IC50 [5]: 349 nM | IC50 [6]: 1800 nM | HepG2 cytoxicity (Pf GCT ATP screen) ([7]; HepG2, ref Almela et al 2016): 6.1 µM | HepG2 cytoxicity (Pf FGAA screen) ([7]; HepG2, ref Miguel-Blanco et al 2017): 4.90 µM | Is compound selective in assay? Pb ODA active? [8]: 0 (0: NO) | % inhibition, Replicate A [8]: 34.80% | % inhibition, Replicate B [8]: 55.23% | IC50 [8, 12]: 2030 nM | IC50 [8, 13]: 2030 nM

O=C(O)CCSSc1cccc[n+]1[O-] [TCMDC-141973]
IC50 ([1]; TCAMS screen comparison): 270 nM | Is compound selective in assay? Pf GC-ATP active? [2]: 1 (1: YES) | Unified cytotox [3, 9]: 19.25 µM | IC50 [3]: 30900 nM | HepG2 cytoxicity ([3]; this manuscript): 30.90 µM | Is compound selective in assay? Pf FGAA active? [4]: 1 (1: YES) | IC50 [5]: 1650 nM | IC50 ([6]; TCAMS screen comparison): 40 nM | HepG2 cytoxicity [7, 10]: 19.05 µM | HepG2 cytoxicity [7, 11]: 7.8 µM | Is compound selective in assay? Pb ODA active? [8]: 1 (1: YES) | % inhibition, Replicate A [8]: 62.58% | % inhibition, Replicate B [8]: 47.23% | IC50 [8, 12]: 1910 nM | IC50 [8, 13]: 1910 nM

C=CCC1OC(=O)c2cc(OC)cc(OC)c21 (stereo not shown) [TCMDC-138677]
IC50 ([1]; TCAMS screen comparison): 600 nM | Is compound selective in assay? Pf GC-ATP active? [2]: 0 (0: NO) | Unified cytotox [3, 9]: 2.43 µM | IC50 [3]: 2570 nM | HepG2 cytoxicity ([3]; this manuscript): 2.57 µM | Is compound selective in assay? Pf FGAA active? [4]: 0 (0: NO) | IC50 [5]: 447 nM | IC50 ([6]; TCAMS screen comparison): 360 nM | HepG2 cytoxicity [7, 10]: 2.29 µM | HepG2 cytoxicity [7, 11]: <1.56 µM | Is compound selective in assay? Pb ODA active? [8]: 0 (0: NO) | % inhibition, Replicate A [8]: 53.73% | % inhibition, Replicate B [8]: 47.60% | IC50 [8, 12]: 2360 nM | IC50 [8, 13]: 2360 nM

Nc1nc(N)c2c(ccc3c2ccn3Cc2ccc(-c3ccccc3)cc2)n1 [TCMDC-137813]
IC50 ([1]; TCAMS screen comparison): 1450 nM | Is compound selective in assay? Pf GC-ATP active? [2]: 0 (0: NO) | Unified cytotox [3, 9]: 1.38 µM | Is compound selective in assay? Pf FGAA active? [4]: 0 (0: NO) | IC50 ([6]; TCAMS screen comparison): 2010 nM | HepG2 cytoxicity [7, 10]: 1.16 µM | HepG2 cytoxicity [7, 11]: 1.6 µM | % inhibition, Replicate A [8]: 53.67% | % inhibition, Replicate B [8]: 5.32%

CNC(=S)NN=C(C)c1ccccn1 [TCMDC-123475]
IC50 ([1]; TCAMS screen comparison): 1170 nM | Is compound selective in assay? Pf GC-ATP active? [2]: 1 (1: YES) | Unified cytotox [3, 9]: 25.00 µM | Is compound selective in assay? Pf FGAA active? [4]: 1 (1: YES) | IC50 ([6]; TCAMS screen comparison): 14 nM | HepG2 cytoxicity [7, 11]: >25 µM

N=C(/N=C(/NCCCCCCN/C(=N\C(=N)Nc1ccc(Cl)cc1)N1CCCCC1)N1CCCCC1)Nc1ccc(Cl)cc1 [TCMDC-131811]
IC50 ([1]; TCAMS screen comparison): 380 nM | Is compound selective in assay? Pf GC-ATP active? [2]: 1 (1: YES) | Unified cytotox [3, 9]: 33.57 µM | Is compound selective in assay? Pf FGAA active? [4]: 0 (0: NO) | IC50 ([6]; TCAMS screen comparison): 7870 nM | HepG2 cytoxicity [7, 10]: 44.23 µM | HepG2 cytoxicity [7, 11]: 22.9 µM

FC(F)(F)c1ccc2[nH]c(-c3ccc(-c4cccc(CN5CCC(CCN6CCCCC6)CC5)c4)cc3)nc2c1.O=C(O)C(F)(F)F [TCMDC-133941]
IC50 ([1]; TCAMS screen comparison): 510 nM | Is compound selective in assay? Pf GC-ATP active? [2]: 0 (0: NO) | Unified cytotox [3, 9]: 3.93 µM | Is compound selective in assay? Pf FGAA active? [4]: 0 (0: NO) | IC50 ([6]; TCAMS screen comparison): 1260 nM | HepG2 cytoxicity [7, 10]: 4.45 µM | HepG2 cytoxicity [7, 11]: 3.4 µM

C[C@H](Cc1ccc(Oc2ccc(C[C@@H](C)NC[C@H](O)c3cccc(Cl)c3)cc2)cc1)NC[C@H](O)c1cccc(Cl)c1.Cl [TCMDC-131560]
IC50 ([1]; TCAMS screen comparison): 270 nM | Is compound selective in assay? Pf GC-ATP active? [2]: 0 (0: NO) | Unified cytotox [3, 9]: 1.98 µM | Is compound selective in assay? Pf FGAA active? [4]: 0 (0: NO) | IC50 ([6]; TCAMS screen comparison): 720 nM | HepG2 cytoxicity [7, 10]: 2.04 µM | HepG2 cytoxicity [7, 11]: 1.91 µM

C#CCOc1ccc2ccccc2c1CNCCCCCCNCc1c(OCC#C)ccc2ccccc12.CS(=O)(=O)O [TCMDC-137838]
IC50 ([1]; TCAMS screen comparison): 500 nM | Is compound selective in assay? Pf GC-ATP active? [2]: 0 (0: NO) | Unified cytotox [3, 9]: 3.05 µM | Is compound selective in assay? Pf FGAA active? [4]: 0 (0: NO) | IC50 ([6]; TCAMS screen comparison): 1050 nM | HepG2 cytoxicity [7, 10]: 2.92 µM | HepG2 cytoxicity [7, 11]: 3.19 µM
